Test results taken from patent publication US6063783A, “Analgesic use of triazolo-pyridazine derivatives” (Merck Sharp & Dohme Ltd., priority 1997, dated 2000).

What was measured:
[1] = test system: carrageenan-induced hyperalgesia; assay: rat carrageenan-induced hyperalgesia assay; format: in vivo; conditions: male Sprague Dawley rats, oral, given 2 h after carrageenan, mechanical thresholds at 3 h, read-out: ID50, inhibition of carrageenan-induced hyperalgesia
Method: Carrageenan-induced hyperalgesia
Male Sprague Dawley rats (100-120 g) received an intraplantar injection of carrageenan (4.5 mg) and mechanical thresholds were determined 3 h later using a modified Ugo Basile Algesiometer. Control rats received saline (0.15 ml i.pl.). Hyperalgesia was defined as the difference in vocalisation threshold for saline- and carrageenan-injected rats. Paw pressure scores for drug-treated rats were expressed as a percentage of this response. Compound A (1, 3 or 10 mg/kg) or vehicle were administered 2 h after carrageenan.
(§1) Compound A was suspended in 0.5% methocel and administered orally. Doses refer to the free base.

chain pulling = chain pulling (sedation) in rats; format: in vivo, rat; conditions: food-deprived P.V.G. rats; oral doses of up to 100 mg/kg; chain pulls recorded for up to 60 min
Method: Response sensitivity training and testing was carried out in standard operant conditioning chambers. Each chamber was equipped with a chain suspended from the centre of the ceiling and connected to a micro switch. Food pellets were delivered into a food magazine positioned at floor level in the centre of the front wall. Food-deprived P.V.G. rats (280-380 g) were trained to pull a chain for access to food pellets according to a random interval (RI) 30 s schedule. Animals received Compound A at 1, 3, 10, 30 or 100 mg/kg or vehicle and the number of chain pulls recorded for up to 60 min. Response rates for drug-treated animals are then expressed as a percentage of response rates for vehicle-treated rats.
as §1

Cn1ncnc1COc1nn2c(-c3ccccc3)nnc2cc1N1CCCC1 [Compound A, 6-(2-methyl-2H-1,2,4-triazol-3-ylmethoxy)-3-phenyl-7-(pyrrolidin-1-yl)-1,2,4-triazolo[4,3-b]pyridazine]
ED50 [1]: 5.3 mg/kg
effects on chain pulling (sedation) (chain pulling): no effects
